“Also recorded” adds a separate entry of the source.
Experiments:
[1] = test system: hyper-aggregatory responses to inducers of the prostaglandin-dependent pathway; conditions: hyperlipidemic patients; Vargaftig et al. (1981); cited from earlier work
[2] = test system: human platelets (arachidonic acid-induced serotonin secretion); assay: Arachidonic acid-induced [14C]-serotonin secretion; type: cell-based; conditions: for IC50: Homo sapiens, Platelet, inhibitor 1 min before AA (0.2-1 mM), mean ± S.E.M., n = 3-9 donors
Description: (§1) The antiaggregatory action of the compounds of the present invention was determined using the following procedure: ADP and AA were obtained from Sigma Chemical Co., (St. Louis, MO). [^14 C]-Serotonin (57 mCi/mmol) and [^3 H]-AA (210 Ci/mmol) were supplied by Amersham (Arlington Heights, IL). U46619 (15S-hydroxy-11α,9α-epoxymethano-prosta-5z,13E-dienoic acid) was purchased from Upjohn Diagnostics (Kalamazoo, MI). Blood was collected from normal human volunteers who reported to be free of medication for at least 10 days prior to blood collection. Washed platelets were prepared and suspended in a modified Tyrode's solution, pH 7.4 as described in Navran, S. S., et al., Thromb. […] The platelet count was adjusted to 3×10^8 /ml for aggregation, secretion and biochemical studies.
(§2) Inhibitors were added one minute prior to induction of platelet activation. Secretion of the contests of platelet dense granules was measured by monitoring the release of radioactivity from platelets prelabeled with [^14 C]-serotonin. […] To study the release of AA from platelet phospholipids, washed platelets were incubated with [^3 H]-AA (3.6 mCi/10^9 platelets) for two hours at room temperature prior to the final centrifugation and resuspension of the washing procedure. Released [^3 H]-AA was quantified from supernatants of stimulated platelet samples in a manner identical to the determination of serotonin secretion.

[3] = test system: human platelets (ADP-induced serotonin secretion); assay: ADP-induced [14C]-serotonin secretion; type: cell-based; conditions: Platelet, inhibitor 1 min before ADP (1-5 uM), mean ± S.E.M., n = 3-9 donors
Description: as §1
Inhibitors were added one minute prior to induction of platelet activation. Secretion of the contests of platelet dense granules was measured by monitoring the release of radioactivity from platelets prelabeled with [^14 C]-serotonin. […] Released [^3 H]-AA was quantified from supernatants of stimulated platelet samples in a manner identical to the determination of serotonin secretion.

[4] = test system: human platelets (U46619-induced serotonin secretion); assay: U46619-induced [14C]-serotonin secretion (+ ASA); type: cell-based; conditions: for IC50: Homo sapiens, Platelet, inhibitor 1 min before U46619 (0.3 uM), aspirin 1 mM added, mean ± S.E.M., n = 3-9 donors; for fold more potent than clofibric acid as inhibitor of U46619-evoked serotonin secretion: versus clofibric acid 1
Description: as §1, §2

[5] = test system: human platelets (U46619, thromboxane A2 agonist-induced aggregation); assay: U46619-induced human platelet aggregation (turbidometric, + ASA); type: cell-based; conditions: for IC50: Homo sapiens, Platelet, inhibitor 1 min before U46619 (0.3 uM), aspirin 1 mM added, mean ± S.E.M., n = 3-9 donors
Description: as §1, §2

[6] = test system: human platelets (ADP-induced aggregation); assay: ADP-induced human platelet aggregation (turbidometric, secondary aggregation); type: cell-based; conditions: for rank order of potency, aggregation and serotonin secretory responses to ADP and AA: aggregation and serotonin secretion together; for IC50: Homo sapiens, Platelet, inhibitor 1 min before ADP (1-5 uM), secondary aggregation only, mean ± S.E.M., n = 3-9 donors; for fold more potent than clofibric acid as inhibitor of ADP-induced platelet activation: versus clofibric acid 1
Description: as §1, §2

[7] = test system: human platelets (thrombin-induced [3H]-AA release); assay: Thrombin-induced [3H]-arachidonic acid release; type: cell-based; conditions: for IC50: Homo sapiens, Platelet, inhibitor 1 min before thrombin (0.5 U/ml), terminated at 4 min, 3-5 donors; for inhibition of AA release (in words): thrombin-induced AA release / release from platelet membrane phospholipids
Description: (§3) The antiaggregatory action of the compounds of the present invention was determined using the following procedure: ADP and AA were obtained from Sigma Chemical Co., (St. Louis, MO). [^14 C]-Serotonin (57 mCi/mmol) and [^3 H]-AA (210 Ci/mmol) were supplied by Amersham (Arlington Heights, IL). U46619 (15S-hydroxy-11α,9α-epoxymethano-prosta-5z,13E-dienoic acid) was purchased from Upjohn Diagnostics (Kalamazoo, MI). Blood was collected from normal human volunteers who reported to be free of medication for at least 10 days prior to blood collection. Washed platelets were prepared and suspended in a modified Tyrode's solution, pH 7.4 as described in Navran, S. S., et al., Thromb. Res., 33: 449-510 (1984). The platelet count was adjusted to 3×10^8 /ml for aggregation, secretion and biochemical studies.
Platelet aggregation studies were performed according to the turbidometric method of Born, as described in Nature, 194: 927-929 (1962), in a Payton Model 600 dual channel aggregometer interfaced to an Apple microcomputer for acquistion, quantitation, presentation, and management of platelet aggregation data, as described in Huzoor-Akbar, et al., 32 Thromb. Res., 335-341 (1983). Inhibitors were added one minute prior to induction of platelet activation. Secretion of the contests of platelet dense granules was measured by monitoring the release of radioactivity from platelets prelabeled with [^14 C]-serotonin. Malondialdehyde formation induced by AA was determined as described in Huzoor-Akar et al., Biochem Pharmacol., 30: 2013-2020 (1981). To study the release of AA from platelet phospholipids, washed platelets were incubated with [^3 H]-AA (3.6 mCi/10^9 platelets) for two hours at room temperature prior to the final centrifugation and resuspension of the washing procedure. Released [^3 H]-AA was quantified from supernatants of stimulated platelet samples in a manner identical to the determination of serotonin secretion.
The reactions were terminated at 4 minutes and [^3 H]-AA was sampled from platelet supernatants and analyzed as described herein. Data are averages ± S.E.M. from 3-5 donors.

[8] = test system: human platelets (arachidonic acid-induced aggregation); assay: Arachidonic acid-induced human platelet aggregation (turbidometric); type: cell-based; conditions: for IC50: Homo sapiens, Platelet, inhibitor 1 min before AA (0.2-1 mM), mean ± S.E.M., n = 3-9 donors; for fold more potent inhibitor of AA-induced aggregation: implied versus clofibric acid; for antiaggregatory potency relative to clofibric acid (in words): prostaglandin-dependent pathway of platelet activation
Description: as §1, §2

[9] = test system: human platelets (collagen-induced aggregation); conditions: literature; cited from earlier work
[10] = test system: human platelets (collagen-induced serotonin secretion); conditions: Witiak et al., J. Med Chem. 25: 90 (1982); cited from earlier work
[11] = test system: human platelets (AA-induced MDA formation); assay: AA-induced malondialdehyde (MDA) formation; type: cell-based; conditions: Platelet, mean+S.E., N=3-5
Description: as §3, with “The platelet count was adjusted to 3×10^8 /ml for aggregation, secretion and biochemical studies.” left out
Platelet aggregation studies were performed according to the turbidometric method of Born, as described in Nature, 194: 927-929 (1962), in a Payton Model 600 dual channel aggregometer interfaced to an Apple microcomputer for acquistion, quantitation, presentation, and management of platelet aggregation data, as described in Huzoor-Akbar, et al., 32 Thromb. […] Secretion of the contests of platelet dense granules was measured by monitoring the release of radioactivity from platelets prelabeled with [^14 C]-serotonin. Malondialdehyde formation induced by AA was determined as described in Huzoor-Akar et al., Biochem Pharmacol., 30: 2013-2020 (1981). […]

Row | IC50 [2] [µM] | IC50 [3] [µM] | IC50 [4] [µM] | IC50 [5] [µM] | IC50 [6] [µM] | IC50 [7] [µM] | IC50 [8] [µM] | Structure (SMILES) | rank order of inhibitory potency, AA-induced serotonin secretion [2] | rank order of inhibitory potency against U46619-induced serotonin secretion [4] | fold more potent than clofibric acid as inhibitor of U46619-evoked serotonin secretion [4] | inhibition of U46619-induced aggregation/responses (in words) [5] | inhibition of (secondary wave of) ADP-induced aggregation (in words) [6] | rank order of potency, aggregation and serotonin secretory responses to ADP and AA [6] | fold more potent than clofibric acid as inhibitor of ADP-induced platelet activation [6] | rank order of inhibitory potency, thrombin-induced AA release [7] | inhibition of AA release (in words) [7] | inhibition of AA-induced aggregation (in words) [8] | rank order of inhibitory potency, AA-induced aggregation [8] | fold more potent inhibitor of AA-induced aggregation [8] | antiaggregatory potency relative to clofibric acid (in words) [8] | also measured
1 | – | – | – | – | – | – | – | CCOC(=O)C(C)(C)Oc1ccc(Cl)cc1 [clofibrate] | – | – | – | – | – | – | – | – | – | – | – | – | – | effect of therapy on hyper-aggregatory responses (in words) [1]: reverses the hyper-aggregatory responses to inducers of the prostaglandin-dependent pathway
2 | 814 ± 90 | 466 ± 90 | 2380 ± 394 | 1500 ± 160 | 363 ± 159 | 432 | 739 ± 86 | O=c1oc2ccc(Cl)cc2c(O)c1O [compound IX, 6-chloro-3,4-dihydroxy-2H-1-benzopyran-2-one] | IX>X>1 | dihydrobenzofuran>benzopyranone>clofibric acid | about 2 fold | inhibits U46619-induced responses in human platelets; also recorded: concentration-dependent inhibitors of U46619-induced aggregation | potent inhibitor of thrombin-induced AA release and ADP- or AA-induced aggregation; also recorded: concentration-dependent inhibition | benzopyranone analogue>2,3-dihydrobenzofuran analog>clofibric acid | about 2 fold | IX>>X=1; also recorded: IX>1=X | blocks AA release from platelet membrane phospholipids; also recorded: potent inhibitor of thrombin-induced AA release | potent inhibitor of thrombin-induced AA release and ADP- or AA-induced aggregation; also recorded: concentration-dependent inhibition | IX>X>1 | approximately 4 fold | more potent antiaggregatory agents than clofibric acid | inhibition of AA metabolism (in words) ([8]; inferred from AA-mediated versus U46619 responses): acts as an inhibitor of AA metabolism
3 | – | – | – | – | – | – | – | O=C1OC(c2ccc(Cl)cc2)C(O)=C1O (stereo not drawn) [compound 2, 2-hydroxytetronic acid aci-reductone] | – | – | – | – | – | – | – | – | – | – | – | – | – | inhibition of collagen-induced human platelet aggregation/activation (in words) [9]: inhibit collagen-inducedhuman platelet aggregation; inhibition of collagen-induced secretion of [14C]-serotonin (in words) [10]: in a concentration-dependent manner at equivalent doses
4 | 1010 ± 142 | 419 ± 90 | 1440 ± 239 | 1480 ± 277 | 533 ± 71 | 3870 | 851 ± 85 | O=C(O)C1Cc2cc(Cl)ccc2O1 (stereo not drawn) [compound X, 5-chloro-2,3-dihydrobenzofuran-2-carboxylic acid] | IX>X>1 | dihydrobenzofuran>benzopyranone>clofibric acid | about 2 fold | antagonizes the proaggregatory actions of the thromboxane A2 agonist U46619; also recorded: concentration-dependent inhibitors of U46619-induced aggregation | concentration-dependent inhibition | benzopyranone analogue>2,3-dihydrobenzofuran analog>clofibric acid | about 2 fold | IX>>X=1; also recorded: IX>1=X | blocks the release and subsequent metabolism of AA | concentration-dependent inhibition | IX>X>1 | approximately 4 fold | more potent antiaggregatory agents than clofibric acid | IC50 [11]: 908 ± 137 µM

From patent US4845121A, “Aci-reductone compounds belonging to the 6,7-disubstituted-3,4-dihydro benzopyan-2H-one class having antiaggregatory properties” (The Ohio State University Research Foundation, priority 1986, dated 1989)
